“Also recorded” adds a separate entry of the source.
Assay: Chemical stability of the API alone and in presence of excipients
Format: physicochemical
Method: Excipient selection/composition development was conducted in order to stabilize (trans)-N1-((1R,2S)-2-phenylcyclopropyl)cyclohexane-1,4-diamine in the final drug product to prevent its chemical degradation. (trans)-N1-((1R,2S)-2-phenylcyclopropyl)cyclohexane-1,4-diamine is very unstable in presence of excipients which are used to form a tablet composition. This is reflected by a decrease of the (trans)-N1-((1R,2S)-2-phenylcyclopropyl)cyclohexane-1,4-diamine content (assay) over time upon storage. The effect is more pronounced at elevated storage temperature.

SMILES: N[C@H]1CC[C@H](N[C@@H]2C[C@H]2c2ccccc2)CC1 [(trans)-N1-((1R,2S)-2-phenylcyclopropyl)cyclohexane-1,4-diamine]
- chemical stability as an API (API alone): chemically very stable
- stability in presence of excipients (in presence of excipients which are used to form a tablet composition, more pronounced at elevated storage temperature): very unstable; also recorded: decompose in presence of many excipients
